Like-named read-outs stand apart in the source and are kept apart here.
What was measured:
[1] = system: HeLa/TK^−; test: Cytostatic assay, HeLa/TK^− cells; assay type: cell-based; settings: Table 6, read-out: IC50 HeLa/TK^−
From the text: (§1) The cell lines employed were L1210/0 (a leukemia cell line), FM3A/0 (a breast cancer cell line), Cem/0 (an acute lymphoblastic leukemia cell line) and HeLa (a cervical cell line).

[2] = system: Cem/0; test: Cytostatic assay, CEM/0 cells; assay type: cell-based, human; settings: for CC50: Table 1, read-out: CC50 Cem/0; for IC50: Table 6, read-out: IC50 Cem/0
From the text: as §1

[3] = system: HeLa; test: Cytostatic assay, HeLa cells; assay type: cell-based; settings: for CC50: Table 1, read-out: CC50 HeLa; for IC50: Table 6, read-out: IC50 HeLa
From the text: as §1

[4] = system: L1210/0; test: Cytostatic assay, L1210/0 cells; assay type: cell-based, murine; settings: for IC50: read-out: IC50 L1210/0
From the text: as §1

[5] = system: Cem/TK^−; test: Cytostatic assay, thymidine kinase-deficient CEM/TK^− cells; assay type: cell-based, human; settings: for IC50: Table 6, read-out: IC50 Cem/TK^−; for CC50: Table 1, read-out: CC50 Cem/TK^−
[6] = system: L1210/TK^−; test: Cytostatic assay, thymidine kinase-deficient L1210/TK^− cells; assay type: cell-based, murine; settings: for CC50: L1210, Table 1, read-out: CC50 L1210/TK^−; for IC50: Table 6, read-out: IC50 L1210/TK^−
[7] = system: FM3A/0; test: Cytostatic assay, FM3A/0 cells; assay type: cell-based; settings: Mus musculus
Procedure: The samples were assayed for biological activity versus a range of tumour cell lines with data recorded in Table 1 below. […] The cell lines employed were L1210/0 (a leukemia cell line), FM3A/0 (a breast cancer cell line), Cem/0 (an acute lymphoblastic leukemia cell line) and HeLa (a cervical cell line).

[8] = system: Cem/hEnt-0; test: Cytostatic assay, CEM cells lacking the hEnt1 transporter; assay type: cell-based; settings: read-out: IC50 Cem/hEnt-0
From the text: (§2) Data are mean (±SD) of at least two to four independent experiments. Table 8 identifies the phosphoramidate motif of compounds embodying the present invention, as discussed above with respect to Table 6, but with “Naph” standing for 1-naphthyl.

[9] = system: Cem/hEnt-1; test: Cytostatic assay, CEM cells containing the hEnt1 transporter; assay type: cell-based
From the text: as §2

[10] = system: L1210.Hyor; test: Cytostatic assay, Mycoplasma hyorhinis-infected L1210 cells; settings: for % Retention: CC50 L1210 × 100 ÷ CC50 L1210/Hyor
Summary of the method: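 Suspension L1210/0 murine leukaemia cells infected with M. hyorhinis, seeded at 60,000 cells/well with test compound in DMEM/10% FBS and grown 48 h at 37 °C, 5% CO2. Cell number counted by Coulter counter; activity also expressed as % retained versus uninfected cells.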

[11] = Mus musculus, L1210/0, Table 1, read-out: CC50 L1210/0
[12] = Mus musculus, L1210/0, Table 2, mycoplasma negative cells, read-out: CC50 L1210
[13] = Homo sapiens, CCRF-CEM, read-out: IC50 Cem/hEnt-1
[14] = read-out: IC50 Cem/hEnt-1 + NBMPR, in the presence of NBMPR
[15] = read-out: IC50 Cem/hEnt-1 + dipyridamole, in the presence of dipyridamole
[16] = Mus musculus, L1210, read-out: CC50 L1210/Hyor
[17] = Mus musculus, L1210, read-out: IC50 L1210.Hyor
[18] = read-out: IC50 L1210.Hyor, Table 7

Row | SMILES | IC50 ([1]; Homo sapiens, HeLa) [nM] | CC50 ([2]; Homo sapiens, CCRF-CEM) [nM] | IC50 ([2]; Homo sapiens, CCRF-CEM) [nM] | IC50 ([3]; Homo sapiens, HeLa) [nM] | CC50 [4, 11] [nM] | IC50 ([4]; Mus musculus, L1210/0, Table 6) [nM] | IC50 ([5]; Homo sapiens, CEM-TK(-)) [nM] | CC50 ([6]; Mus musculus) [nM] | IC50 ([6]; Mus musculus, L1210) [nM] | IC50 ([4]; Mus musculus, L1210/0, Table 7) [nM] | % Retention [10] [%] | IC50 [10, 17] [nM] | IC50(L1210.Hyor)/IC50(L1210/0) ([10]; Table 7) | IC50 [1] [nM] | IC50 [2] [nM] | IC50 [3] [nM] | IC50 ([4]; Table 6) [nM] | IC50 ([4]; Table 7) [nM] | IC50 [5] [nM] | IC50 [10, 18] [nM] | further results
1 | O=c1[nH]cc(F)c(=O)[nH]1 [5-FU, 5-Fluorouracil, reference compound] | 230 ± 10 | 18000 ± 5000 | 18000 ± 5000 | 540 ± 120 | 330 ± 170 | 330 ± 170 | 12000 ± 1000 | 320 ± 310 | 320 ± 310 |  |  |  |  |  |  |  |  |  |  |  | CC50 ([3]; Homo sapiens, HeLa): 540 ± 120 nM; CC50 ([7]; FM3A/0, Table 1, read-out: CC50 FM3A/0): 180 ± 20 nM
2 | O=c1[nH]c(=O)n([C@H]2C[C@H](O)[C@@H](COP(=O)(O)O)O2)cc1F [5-FdUMP, 5-fluoro-2′-deoxyuridine-5′-monophosphate, reference compound] |  |  |  |  |  |  |  |  |  |  |  |  |  |  |  |  |  |  |  |  | IC50 ([8]; Homo sapiens, CCRF-CEM, Table 8): 3600 ± 690 nM; IC50 ([9]; Homo sapiens, CCRF-CEM, Table 8, read-out: IC50 Cem/hEnt-1): 50 ± 20 nM; IC50 ([9]; Homo sapiens, CCRF-CEM, in the presence of NBMPR, read-out: IC50 Cem/hEnt-1 + NBMPR): 1060 nM; IC50 ([9]; Homo sapiens, CCRF-CEM, in the presence of dipyridamole, read-out: IC50 Cem/hEnt-1 + dipyridamole): 1740 nM
3 | CC(C)(NP(=O)(OC[C@H]1O[C@@H](n2cc(F)c(=O)[nH]c2=O)CC1O)Oc1ccccc1)C(=O)OCc1ccccc1 (stereo partly drawn) [CPF 393, 5-Fluoro-2′deoxyuridine-5′-O-[phenyl (benzoxy-α,α-dimethylglycine)]phosphate] | 3700 ± 100 | 230 ± 40 | 230 ± 40 | 240 ± 70 | 17 ± 3 | 17 ± 3 | 4800 ± 700 | 180 ± 50 | 180 ± 50 | 29 ± 1 | 145 | 20 ± 2 | 0.69 |  |  |  |  |  |  |  | IC50 ([8]; Homo sapiens, CCRF-CEM): 1200 ± 110 nM; CC50 [4, 12]: 29 nM; IC50 [9, 13]: 170 ± 60 nM; IC50 [9, 14]: 610 nM; IC50 [9, 15]: 260 nM; CC50 ([5]; Homo sapiens, CEM-TK(-)): 4800 ± 700 nM; CC50 [10, 16]: 20 nM
4 | CCOC(=O)C(C)(C)NP(=O)(OC[C@H]1O[C@@H](n2cc(F)c(=O)[nH]c2=O)CC1O)Oc1ccccc1 (stereo partly drawn) [CPF 394, 5-Fluoro-2′deoxyuridine-5′-O-[phenyl (ethoxy-α,α-dimethylglycine)]phosphate] | 17000 ± 2000 | 650 ± 160 | 650 ± 160 | 590 ± 90 | 39 ± 1 | 39 ± 1 | 22000 ± 1000 | 4600 | 4600 | 30 ± 0.5 | 12 | 260 ± 10 | 8.7 |  |  |  |  |  |  |  | IC50 ([8]; Homo sapiens, CCRF-CEM): 5800 ± 500 nM; CC50 [4, 12]: 30 nM; IC50 [9, 13]: 370 ± 140 nM; IC50 [9, 14]: 2560 nM; IC50 [9, 15]: 2350 nM; CC50 ([5]; Homo sapiens, CEM-TK(-)): 22000 ± 1000 nM; CC50 [10, 16]: 260 nM
5 | CC(C)(NP(=O)(OCC1OC(n2cc(F)c(=O)[nH]c2=O)CC1O)Oc1cccc2ccccc12)C(=O)OCc1ccccc1 (stereo not drawn) [CPF 395, 5-Fluoro-2′deoxyuridine-5′-O-[1-naphthyl (benzoxy-α,α-dimethylglycine)]phosphate] |  |  |  |  |  |  |  |  |  |  | 42 |  | 2.4 | 3100 ± 600 | 160 ± 20 | 78 ± 20 | 11 ± 5 | 19 ± 4 | 2400 ± 800 | 45 ± 4 | IC50 ([8]; Table 8): 400 ± 130 nM; CC50 ([4]; Table 2, mycoplasma negative cells, read-out: CC50 L1210): 19 nM; IC50 ([9]; Table 8, read-out: IC50 Cem/hEnt-1): 50 ± 30 nM; IC50 ([9]; in the presence of NBMPR, read-out: IC50 Cem/hEnt-1 + NBMPR): 280 nM; IC50 ([9]; in the presence of dipyridamole, read-out: IC50 Cem/hEnt-1 + dipyridamole): 160 nM; CC50 ([10]; read-out: CC50 L1210/Hyor, Table 2, mycoplasma positive cells): 45 nM; IC50 [6]: 130 ± 40 nM
6 | CCOC(=O)C(C)(C)NP(=O)(OC[C@H]1O[C@@H](n2cc(F)c(=O)[nH]c2=O)CC1O)Oc1cccc2ccccc12 (stereo partly drawn) [CPF 396, 5-Fluoro-2′deoxyuridine-5′-O-[1-naphthyl (ethoxy-α,α-dimethylglycine)]phosphate] | 3200 | 360 ± 50 | 360 ± 50 | 200 ± 120 | 64 ± 8 | 64 ± 8 | 6900 ± 1800 | 820 ± 160 | 820 ± 160 | 56 ± 40 | 33 | 170 ± 30 | 3 |  |  |  |  |  |  |  | IC50 ([8]; Homo sapiens, CCRF-CEM): 1400 ± 200 nM; CC50 [4, 12]: 56 nM; IC50 [9, 13]: 210 ± 70 nM; IC50 [9, 14]: 620 nM; IC50 [9, 15]: 520 nM; CC50 ([5]; Homo sapiens, CEM-TK(-)): 6900 ± 1800 nM; CC50 [10, 16]: 170 nM
7 | C[C@H](NP(=O)(OC[C@H]1O[C@@H](n2cc(F)c(=O)[nH]c2=O)CC1O)Oc1cccc2ccccc12)C(=O)OC1CCCCC1 (stereo partly drawn) [CPF 509, 5-Fluoro-2′deoxyuridine-5′-O-[1-naphthyl (cyclohexoxy-L-alaninyl)]phosphate] |  | 57 ± 55 | 57 ± 55 | 90 ± 14 | 43 ± 23 | 43 ± 23 | 1000 ± 100 | 150 | 150 | 36 ± 17 |  | 49 ± 4 | 1.4 |  |  |  |  |  |  |  | CC50 ([3]; Homo sapiens, HeLa): 90 ± 14 nM; CC50 ([7]; FM3A/0, read-out: CC50 FM3A/0): 310 ± 60 nM
8 | O=C(OCc1ccccc1)C(Cc1ccccc1)NP(=O)(OCC1OC(n2cc(F)c(=O)[nH]c2=O)CC1O)Oc1ccccc1 (centres unmarked) [Ph Bn Phe] |  |  |  |  |  |  |  |  |  |  |  |  | 35 | 12000 ± 2000 | 250 ± 20 | 14 ± 7 | 36 ± 10 | 16 ± 1.4 | 11000 ± 3000 | 560 ± 23 | IC50 [6]: 39000 ± 4000 nM
9 | CCOC(=O)C(NP(=O)(OCC1OC(n2cc(F)c(=O)[nH]c2=O)CC1O)Oc1ccccc1)C(C)C (centres unmarked) [Ph Et Val] |  |  |  |  |  |  |  |  |  |  |  |  | 22 | 27000 ± 7000 | 1000 ± 100 | 1200 ± 300 | 160 ± 50 | 200 ± 33 | > 250000 | 4400 ± 1100 | IC50 [6]: 42000 ± 2000 nM
10 | CCCCCOC(=O)C(CCSC)NP(=O)(OCC1OC(n2cc(F)c(=O)[nH]c2=O)CC1O)Oc1ccccc1 (centres unmarked) [Ph Pnt Met] |  |  |  |  |  |  |  |  |  |  |  |  | 3.2 | 7100 ± 1200 | 350 ± 130 | 150 | 110 ± 60 | 130 ± 7.8 | 13000 ± 1000 | 410 ± 210 | IC50 [6]: 2200 ± 500 nM

From patent US10993957B2 (NuCana plc, priority 2011, dated 2021)
